According to ChEMBL document CHEMBL4834476, “Potent antiviral activity of Agrimonia pilosa, Galla rhois, and their components against SARS-CoV-2” (2021):
Activity calls are given as the source filed them. No cut-off for these calls is given here.

What was measured:
SARS-CoV-2 [1] = assay: (§1) Antiviral activity against SARS-CoV-2 NCCP43326 infected in African green monkey Vero cells assessed as inhibition of plaque formation at 1 to 25 ug/ml treated with compound for 1 hr post-infection followed by drug wash-out and measured at 72 hrs post-infection by crystal violet staining analysis; type: functional; conditions: for Activity: Severe acute respiratory syndrome coronavirus 2, dose 1-25 µg/ml
SARS-CoV-2 [2] = assay: as §1, with “at” for “at 1 to”, “analysis relative to control” for “analysis”; type: functional; conditions: Severe acute respiratory syndrome coronavirus 2, NCCP43326, Vero
SARS-CoV-2 [3] = assay: Antiviral activity against SARS-CoV-2 NCCP43326 infected in African green monkey Vero cells assessed as reduction in spike protein production at 1 to 25 ug/ml cells were infected with virus for 1 hr followed by wash-out period and later treated with compound and measured after 72 hrs by ELISA; type: functional, organism-based; conditions: Severe acute respiratory syndrome coronavirus 2, dose 1-25 µg/ml
SARS-CoV-2 [4] = assay: Antiviral activity against SARS-CoV-2 NCCP43326 infected in African green monkey Vero cells assessed as reduction in spike protein production at 1 to 25 ug/ml treated with compound for 1 hr post-infection followed by drug wash-out and measured at 72 hrs post-infection by ELISA; type: functional, organism-based; conditions: Severe acute respiratory syndrome coronavirus 2, dose 1-25 µg/ml
SARS-CoV-2 [5] = assay: Antiviral activity against SARS-CoV-2 NCCP43326 infected in African green monkey Vero cells assessed as inhibition of plaque formation at 0.125 to 0.5 ug/ml treated with compound for 1 hr post-infection followed by drug wash-out and measured at 72 hrs post-infection by staining analysis; type: functional, organism-based; conditions: Severe acute respiratory syndrome coronavirus 2, dose 0.125-0.5 µg/ml

| Compound | Activity (SARS-CoV-2 [1]) | inhibition at 25 µg/mL (SARS-CoV-2 [2]) | Activity (SARS-CoV-2 [3]) | Activity (SARS-CoV-2 [4]) | inhibition (INH) (SARS-CoV-2 [1]; dose 1-25 µg/ml, at 1 to 25 µg/mL) | Activity (SARS-CoV-2 [5]) |
| --- | --- | --- | --- | --- | --- | --- |
| CCOC(=O)c1cc(O)c(O)c(O)c1 [ETHYLGALLATE] | Active | 21.1% |  |  |  |  |
| O=C(OC[C@H]1O[C@@H](OC(=O)c2cc(O)c(O)c(O)c2)[C@H](OC(=O)c2cc(O)c(O)c(O)c2)[C@@H](OC(=O)c2cc(O)c(O)c(O)c2)[C@@H]1OC(=O)c1cc(O)c(O)c(O)c1)c1cc(O)c(O)c(O)c1 [PENTAGALLOYL GLUCOSE] |  | 100% | Active | Active | 100% | Active |
| O=c1c(O)c(-c2ccc(O)c(O)c2)oc2cc(O)cc(O)c12 [QUERCETIN] | Active | 67.2% | Active | Active |  |  |
| C[C@H]1[C@H](C)CC[C@]2(C(=O)O)CC[C@]3(C)C(=CC[C@@H]4[C@@]5(C)CC[C@H](O)C(C)(C)[C@@H]5CC[C@]43C)[C@H]12 [URSOLIC ACID] | Active | 78.3% | Active | Active |  |  |
